In patent US7439359B2, “Small molecule compositions for binding to hsp90” (Sloan-Kettering Institute for Cancer Research, priority 2000, dated 2008):
Read-outs that look alike come from different tables or passages of the source.

Assays:
[1] = system: MCF-7; test: Growth inhibition, sulforhodamine B assay; type: cell-based, human; settings: unit inferred
From the text: (§1) Protein Assays. […] Antiproliferative index. […] Tissue Culture IC50 Studies. […] Her2 degradation. Total Protein Assays. […] Binding studies. Solid phase competition assays.

[2] = system: MDA-MB-468; test: Growth inhibition, sulforhodamine B assay; type: cell-based, human; settings: for IC50: unit inferred
From the text: as §1

[3] = target: Hsp90alpha (Homo sapiens, UniProt P07900); test: Solid phase competition assay with GM-beads, Hsp90 alpha immunoblot; type: binding; design: purchased Stressgen SPP-770; settings: for EC50: competition with immobilized GM, unit inferred, read-out: EC50 Hsp90 α
Protocol: (§2) A test was also designed which allows identification of compounds which interact differentially with Hsp90-alpha and Hsp90-beta. […] An Hsp90 protein preparation containing both the alpha and the beta form is incubated with the support in the presence or absence of a compound to be evaluated. […] After washing, the material bound to the support is eluted and the eluate is separated on an SDS/PAGE gel and visualized by immunoblotting with anti-Hsp90-alpha and anti-Hsp90-beta to determine the amount of material bound. Alternatively, if quantitative amounts of the Hsp90 protein preparation or known ratios of alpha to beta forms of Hsp90 are used in the first instance, the unbound material can be analyzed by a similar technique.
as §1

[4] = target: T1, Hsp90 beta (Homo sapiens, UniProt P08238); test: Solid phase competition assay with GM-beads, Hsp90 beta immunoblot; type: binding; settings: for EC50: competition with immobilized GM, unit inferred, read-out: EC50 Hsp90 β
T1 construct: purchased Stressgen SPP-770
Protocol: as §2, §1

[5] = system: BT-474; test: Growth inhibition, sulforhodamine B assay; type: cell-based; settings: Homo sapiens, 72 hours, unit inferred
From the text: as §1

[6] = system: Her2; test: Her2 total protein degradation in MCF-7 cells (immunoblot);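 also: Her2 levels judged by SDS-PAGE western blot of whole-cell lysates probed with anti-Her2 antibody, compared with DMSO vehicle-treated cells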
Protocol: For assays on protein levels, cells were grown to 60-70% confluence exposed to drugs or DMSO vehicle for the indicated time periods. Lysates were prepared using 50 mM Tris pH=7.4, 2% SDS and 10% glycerol lysis buffer. Protein concentration was determined using the BCA kit (Pierce Chemical Co.), according to the manufacturers instructions. Clarified protein lysates (20-50 mg) were electrophoretically resolved on denaturing SDS-PAGE, transferred to nitrocellulose and probed with the following primary antibodies: anti-Her2 (C-18), -Her3 (C-17), -Raf-1, -cyclin D1, -Rb (C-15) (Santa Cruz), anti-hsp90, -hsp70, -ER (Stressgen), anti-Trap-1 (MSK81), anti-b-actin, -tubulin (Sigma), anti-PI3K (p85) (Upstate Biotechnologies).
After 24 hours, the cells were lysed and the amount of Her2 in the cells was evaluated.
Protein Assays. Cells were grown to 60-70% confluence and exposed to drugs or DMSO vehicle for the indicated time periods. Lysates were prepared using 50 mM Tris pH 7.4, 2% SDS and 10% glycerol lysis buffer. Protein concentration was determined using the BCA kit (Pierce Chemical Co.), according to the manufacturers instructions. Clarified protein lysates (20-50 mg) were electrophoretically resolved on denaturing SDS-PAGE, transferred to nitrocellulose and probed with the following primary antibodies: anti-Her2 (C-18), -Her3 (C-17), -Raf-1, -cyclin D1, -Rb (C-15) (Santa Cruz Biotechnology), anti-hsp90, -hsp70 (Stressgen) anti-Trap-1 (MSK81), anti-b-actin, -tubulin (Sigma), ER, anti-PI3K (p85) (Upstate Biotechnologies). […] Her2 degradation. Total Protein Assays. Cells were grown to 60-70% confluence and exposed to drugs or DMSO vehicle for the indicated time periods. Lysates were prepared using 50 mM Tris pH 7.4, 2% SDS and 10% glycerol lysis buffer. Protein concentration was determined using the BCA kit (Pierce Chemical Co.), according to the manufacturers instructions. Clarified protein lysates (20-50 μg) were electrophoretically resolved on denaturing SDS-PAGE, transferred to nitrocellulose and probed with the anti-Her2 primary antibody (C-18) (Santa Cruz Biotechnology).

[7] = Homo sapiens, MDA-MB-468, 72 hours
[8] = Homo sapiens, MCF7, read-out: IC50 Her2/MCF-7
[9] = read-out: IC50 Her2/MCF-7, Her2 total protein degradation in MCF-7, unit inferred

T1 sequence (P08238 whole entry): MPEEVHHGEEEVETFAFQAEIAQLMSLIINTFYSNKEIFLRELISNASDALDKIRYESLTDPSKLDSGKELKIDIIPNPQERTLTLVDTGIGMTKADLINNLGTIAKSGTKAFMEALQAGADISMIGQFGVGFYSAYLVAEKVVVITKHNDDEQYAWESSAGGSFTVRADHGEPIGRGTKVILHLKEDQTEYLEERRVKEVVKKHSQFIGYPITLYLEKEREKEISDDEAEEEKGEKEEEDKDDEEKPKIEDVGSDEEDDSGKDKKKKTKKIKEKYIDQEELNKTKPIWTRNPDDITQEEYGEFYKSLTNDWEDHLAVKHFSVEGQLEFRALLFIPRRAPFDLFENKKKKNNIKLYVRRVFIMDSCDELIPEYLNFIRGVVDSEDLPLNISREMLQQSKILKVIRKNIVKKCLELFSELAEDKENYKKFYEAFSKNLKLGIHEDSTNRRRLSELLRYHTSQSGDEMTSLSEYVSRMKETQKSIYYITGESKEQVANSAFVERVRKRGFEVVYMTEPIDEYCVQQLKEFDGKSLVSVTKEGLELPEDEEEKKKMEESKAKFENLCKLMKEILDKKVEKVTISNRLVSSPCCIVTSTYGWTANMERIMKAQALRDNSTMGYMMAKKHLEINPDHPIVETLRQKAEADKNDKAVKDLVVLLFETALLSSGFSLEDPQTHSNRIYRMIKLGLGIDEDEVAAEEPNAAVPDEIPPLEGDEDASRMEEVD

IC50 ([1]; 72 hours) [µM] | IC50 ([2]; 72 hours) [µM] | binding to hsp 90-alpha [3] | binding to hsp 90-beta [4] | IC50 [5] [µM] | IC50 ([1]; Homo sapiens, MCF7, 72 hours) [µM] | IC50 [2, 7] [µM] | IC50 [6, 8] [µM] | EC50 [3] [µM] | EC50 [4] [µM] | IC50 MDA-468 ([2]; 72 hours, unit not given) | IC50 [6, 9] [µM] | SMILES
51 | 66 |  |  |  |  |  |  |  |  |  |  | CC=CCn1c(Cc2cc(OC)c(OC)c(OC)c2)nc2c(N)ncnc21 (mixture of isomers) [PU11]
 |  | no detectable binding | weak binding |  |  |  |  |  |  |  |  | CCCCn1c(Oc2cc(OC)c(OC)c(OC)c2)nc2c(N)ncnc21 [Compound 69, 9-Butyl-8-(3,4,5-trimethoxy-phenoxy)-9H-purin-6-ylamine]
 |  |  |  | 29 | 24 | 30 | 25 | 6 | 3.5 |  |  | CCCCn1c(Cc2cc(OC)c(OC)c(OC)c2)nc2c(N)nc(F)nc21 [PU3F, 2-Fluoro-9-butyl-8-(3,4,5-trimethoxy-benzyl)-9H-purin-6-ylamine]
 |  |  |  |  | 30 | 21 | > 100 | > 100 | > 100 |  |  | CCCCn1c(Cc2c(Br)c(OC)c(OC)c(OC)c2Br)nc2c(N)ncnc21 [PU3PhBr2, 9-butyl-8-(2,6-dibromo-3,4,5-trimethoxy-benzyl)-9H-purin-6-ylamine]
 |  |  |  | 60 | 25 |  | 50 | 35.3 | 11.7 | INSOL |  | CCCCn1c(Cc2cc(OC)c(OC)c(OC)c2Br)nc2c(N)ncnc21 [PU3PhBr, 9-butyl-8-(2-bromo-3,4,5-trimethoxy-benzyl)-9H-purin-6-ylamine]
 |  |  |  | 30 | 19 | 36 | 25 | 18.6 | 4.6 |  |  | CCCCn1c(Cc2cc(OC)c(OC)c(OC)c2Cl)nc2c(N)ncnc21 [PU3PhCl, 9-butyl-8-(2-chloro-3,4,5-trimethoxy-benzyl)-9H-purin-6-ylamine]
64 | 80 |  |  |  |  |  |  | 17.6 | 75 |  | 70 | CC/C=C\Cn1c(Cc2cc(OC)c(OC)c(OC)c2)nc2c(N)ncnc21 [PU7]
 |  |  |  | 35 | 33 | 25 | 30 | 5 | 9.8 |  |  | C=CCCn1c(Cc2cc(OC)c(OC)c(OC)c2)nc2c(N)nc(F)nc21 [PU8F, 2-Fluoro-9-but-3-enyl-8-(3,4,5-trimethoxy-benzyl)-9H-purin-6-ylamine]
41 | 73 |  |  |  |  |  |  | 4 | 10.6 |  | 30 | C=CCCn1c(Cc2cc(OC)c(OC)c(OC)c2)nc2c(N)ncnc21 [PU8]
69 | 85 |  |  |  |  |  |  | 28 | 114 |  |  | COc1cc(Cc2nc3c(N)ncnc3n2CCCC(C)C)cc(OC)c1OC [PU9]
70 | 75 |  |  |  |  |  |  |  |  |  |  | COc1cc(Cc2nc3c(N)ncnc3n2C)cc(OC)c1OC [PU13]
160 | 130 |  |  |  |  |  |  | 62.3 | 52.1 |  | > 100 | CCC(CC)Cn1c(Cc2cc(OC)c(OC)c(OC)c2)nc2c(N)ncnc21 [PU14]
75 | 70 |  |  |  |  |  |  | 12 | 16.2 |  | 70 | COc1cc(Cc2nc3c(N)ncnc3n2CC2CC2)cc(OC)c1OC [PU15]
 |  |  |  | 31 | 41 | 21 | 40 | 30.7 | 9.2 |  |  | COc1cc(Cc2nc3c(N)nc(F)nc3n2CC2CCC2)cc(OC)c1OC [PU16F, 2-Fluoro-9-cyclobutylmethyl-8-(3,4,5-trimethoxy-benzyl)-9H-purin-6-ylamine]
46 | 68 |  |  |  |  |  |  | 17 | 32 |  | 60 | COc1cc(Cc2nc3c(N)ncnc3n2CC2CCC2)cc(OC)c1OC [PU16]
 |  |  |  | 25 | 23 | 21 | 20 | 2.3 | 6.8 |  |  | COc1cc(Cc2nc3c(N)nc(F)nc3n2CC2CCCO2)cc(OC)c1OC (stereo not shown) [PU20F, 2-Fluoro-9-(tetrahydrofuran-2-ylmethyl)-8-(3,4,5-trimethoxy-benzyl)-9H-purin-6-ylamine]
 |  |  |  |  | 92 | 80 | 70 | 4.4 | 3.4 |  |  | COc1cc(Cc2nc3c(N)ncnc3n2CC2CCCO2)cc(OC)c1OC (stereo not shown) [PU20]

IC50 ([1]; 72 hours) [µM] | IC50 ([2]; 72 hours) [µM] | binding to hsp 90-alpha [3] | binding to hsp 90-beta [4] | IC50 [5] [µM] | IC50 ([1]; Homo sapiens, MCF7, 72 hours) [µM] | IC50 [2, 7] [µM] | IC50 [6, 8] [µM] | EC50 [3] [µM] | EC50 [4] [µM] | IC50 MDA-468 ([2]; 72 hours, unit not given) | IC50 [6, 9] [µM] | SMILES
 |  |  |  | 43 | 36 | 19 | 35 | 22 | 8.9 |  |  | CCCCCn1c(Cc2cc(OC)c(OC)c(OC)c2)nc2c(N)nc(F)nc21 [PU21F, 2-Fluoro-9-pentyl-8-(3,4,5-trimethoxy-benzyl)-9H-purin-6-ylamine]
 |  |  |  |  | 62 | 73 | 50 | 22.5 | 11.8 |  |  | CCCCCn1c(Cc2cc(OC)c(OC)c(OC)c2)nc2c(N)ncnc21 [PU21]
80 | 118 |  |  |  |  |  |  |  |  |  |  | CCn1c(Cc2cc(OC)c(OC)c(OC)c2)nc2c(N)ncnc21 [PU22]
47 | 55 |  |  |  |  |  |  | 13.3 | 9.5 |  | 50 | CC/C=C/Cn1c(Cc2cc(OC)c(OC)c(OC)c2)nc2c(N)ncnc21 [PU23]
82 |  |  |  |  |  |  |  |  |  |  |  | COc1cc(Cc2nc3c(N)ncnc3n2CC(OC)OC)cc(OC)c1OC [PU25]
 |  |  |  | 45 | 44 | 28 | 40 | 22 | 15 |  |  | CC[C@H](C)Cn1c(Cc2cc(OC)c(OC)c(OC)c2)nc2c(N)nc(F)nc21 [PU26F, 2-Fluoro-9-[(S)-2-methyl-butyl]-8-(3,4,5-trimethoxy-benzyl)-9H-purin-6-ylamine]
62 | 71 |  |  |  |  |  |  | 25.3 | 15.7 |  | 70 | CCC(C)Cn1c(Cc2cc(OC)c(OC)c(OC)c2)nc2c(N)ncnc21 (stereo not shown) [PU26]
 |  |  |  |  | 16 | 16 | 15 | 2 | 1.3 |  |  | COc1cc(Cc2nc3c(N)nc(F)nc3n2CCOC(C)C)cc(OC)c1OC [PU29F, 2-Fluoro-9-(2-isopropoxy-ethyl)-8-(3,4,5-trimethoxy-benzyl)-9H-purin-6-ylamine]
 |  |  |  | 4.5 | 5.4 | 4.5 | 3 | 0.65 | 0.52 |  |  | COc1cc(Cc2nc3c(N)nc(F)nc3n2CCOC(C)C)c(Cl)c(OC)c1OC [PU29FCl, 2-Fluoro-9-(2-isopropoxy-ethyl)-8-(2-chloro-3,4,5-trimethoxy-benzyl)-9H-purin-6-ylamine]
39 | 72 |  |  |  |  |  |  | 1.4 | 1.7 |  | 45 | COc1cc(Cc2nc3c(N)ncnc3n2CCOC(C)C)cc(OC)c1OC [PU29]
111 |  |  |  |  |  |  |  | 111 | 47.8 |  | 120 | COc1cc(Cc2nc3c(N)ncnc3n2CC2(C)CC2)cc(OC)c1OC [PU30]
98 | 70 |  |  |  |  |  |  | 16.6 | 20.4 |  | 100 | COc1cc(Cc2nc3c(N)ncnc3n2CC(C)C)cc(OC)c1OC [PU41]
 |  |  |  | 30 | 25 | 25 | 30 | 4.1 | 5.3 |  |  | CCCn1c(Cc2cc(OC)c(OC)c(OC)c2)nc2c(N)nc(F)nc21 [PU43F, 2-Fluoro-9-propyl-8-(3,4,5-trimethoxy-benzyl)-9H-purin-6-ylamine]
47 | 54 |  |  |  |  |  |  | 6.6 | 10.8 |  | 50 | CCCn1c(Cc2cc(OC)c(OC)c(OC)c2)nc2c(N)ncnc21 [PU43]
 |  |  |  | 60 | 64 | 35 | 65 | 7.9 | 13.8 |  |  | COCCn1c(Cc2cc(OC)c(OC)c(OC)c2)nc2c(N)nc(F)nc21 [PU44F, 2-Fluoro-9-(2-methoxy-ethyl)-8-(3,4,5-trimethoxy-benzyl)-9H-purin-6-ylamine]
65 | 79 |  |  |  |  |  |  | 4.1 | 12.4 |  | 85 | COCCn1c(Cc2cc(OC)c(OC)c(OC)c2)nc2c(N)ncnc21 [PU44]

SMILES | IC50 ([1]; 72 hours) [µM] | IC50 ([2]; 72 hours) [µM] | binding to hsp 90-alpha [3] | binding to hsp 90-beta [4] | IC50 [5] [µM] | IC50 ([1]; Homo sapiens, MCF7, 72 hours) [µM] | IC50 [2, 7] [µM] | IC50 [6, 8] [µM] | EC50 [3] [µM] | EC50 [4] [µM] | IC50 MDA-468 ([2]; 72 hours, unit not given) | IC50 [6, 9] [µM]
C#CCCCn1c(Cc2cc(OC)c(OC)c(OC)c2)nc2c(N)nc(F)nc21 [PU24F, 2-Fluoro-9-pent-4-ynyl-8-(3,4,5-trimethoxy-benzyl)-9H-purin-6-ylamine] |  |  |  |  | 14 | 11 | 15 | 5 | 6.2 | 0.7 |  | 
C#CCCCn1c(Cc2cc(OC)c(OC)c(OC)c2)nc2c(N)ncnc21 [PU24] |  |  |  |  |  | 24 | 41 | 20 | 2.6 | 1.5 |  | 
